This assay has as its system MCH receptors. In words: MCH receptor activity class (method not given). The conditions noted are these: class by percent of control at 10^-7 M or IC50.

Consider 23 molecules from patent US20050197350A1, “Novel quinoline, tetrahydroquinazoline, and pyrimidine derivatives and methods of treatment related to the use thereof” (TAISHO PHARMACEUTICAL CO., LTD., priority 2003, published 2005).

Molecules are shown by their SMILES.

As for `Cc1ccc(C(=O)CC(C(=O)N[C@H]2CC[C@@H](Nc3cc(N(C)C)c4ccccc4n3)CC2)c2cn(C)c3ccccc23)cc1` (relative stereo) [compound 722], the class is on record as 3 (Class 3 The value of percent of control at 10^−7 M was more than 60% or the value of IC50 was more than 200 nM.).
Take `CCCN(CCC)C(=O)[C@H](CCC(=O)N[C@H]1CC[C@@H](Nc2cc(N(C)C)c3ccccc3n2)CC1)NC(=O)c1ccccc1` (relative stereo) [compound 730]: the class is on record as 3 (Class 3 The value of percent of control at 10^−7 M was more than 60% or the value of IC50 was more than 200 nM.).
The figure for `CN(C)c1cc(N[C@H]2CC[C@@H](NC(=O)C(CC(=O)c3ccc(Cl)cc3)SCc3ccc(Cl)cc3)CC2)nc2ccccc12` (relative stereo) [compound 741] is 3 (Class 3 The value of percent of control at 10^−7 M was more than 60% or the value of IC50 was more than 200 nM.); for `Cc1ccc(C(=O)CC(SCc2ccc(Cl)cc2)C(=O)N[C@H]2CC[C@@H](Nc3cc(N(C)C)c4ccccc4n3)CC2)cc1` (relative stereo) [compound 742] it is 3 (Class 3 The value of percent of control at 10^−7 M was more than 60% or the value of IC50 was more than 200 nM.).
The figure for `CC1=C(CC(=O)N[C@H]2CC[C@@H](Nc3cc(N(C)C)c4ccccc4n3)CC2)c2cc(F)ccc2/C1=C/c1ccc([S+](C)[O-])cc1` (relative stereo) [compound 743] is 3 (Class 3 The value of percent of control at 10^−7 M was more than 60% or the value of IC50 was more than 200 nM.); for `CC(C(=O)N[C@H]1CC[C@@H](Nc2cc(N(C)C)c3ccccc3n2)CC1)c1ccc(C(=O)c2cccs2)cc1` (relative stereo) [compound 744] it is 3 (Class 3 The value of percent of control at 10^−7 M was more than 60% or the value of IC50 was more than 200 nM.); for `COC(C(=O)N[C@H]1CC[C@@H](Nc2cc(N(C)C)c3ccccc3n2)CC1)c1ccccc1` (relative stereo) [compound 777] it is 3 (Class 3 The value of percent of control at 10^−7 M was more than 60% or the value of IC50 was more than 200 nM.).
The figure for `CN(C)c1cc(N[C@H]2CC[C@@H](NC(=O)C3CCc4ccccc4C3)CC2)nc2ccccc12` (relative stereo) [compound 778] is 3 (Class 3 The value of percent of control at 10^−7 M was more than 60% or the value of IC50 was more than 200 nM.); for `CN(C)c1cc(N[C@H]2CC[C@@H](CNC(=O)C(Cc3ccccc3)c3ccccc3)CC2)nc2ccccc12` (relative stereo) [compound 793] it is 3 (Class 3 The value of percent of control at 10^−7 M was more than 60% or the value of IC50 was more than 200 nM.); for `CN(C)c1cc(N[C@H]2CC[C@@H](CNC(=O)C3CC(=O)c4ccccc43)CC2)nc2ccccc12` (relative stereo) [compound 798] it is 3 (Class 3 The value of percent of control at 10^−7 M was more than 60% or the value of IC50 was more than 200 nM.).
For the molecule `CCOc1ccc(C(=O)CC(C(=O)NC[C@H]2CC[C@@H](Nc3cc(N(C)C)c4ccccc4n3)CC2)C2C(=O)N(c3ccccc3)N=C2C)cc1` (relative stereo) [compound 807], the class was 3 (Class 3 The value of percent of control at 10^−7 M was more than 60% or the value of IC50 was more than 200 nM.).
For `CN(C)c1ccnc(N[C@H]2CC[C@@H](NC(=O)C(Cc3ccccc3)c3ccccc3)CC2)n1` (relative stereo) [compound 817], the class is on record as 3 (Class 3 The value of percent of control at 10^−7 M was more than 60% or the value of IC50 was more than 200 nM.).
In the case of `CN(C)c1ccnc(N[C@H]2CC[C@@H](NC(=O)C3CC(=O)c4ccccc43)CC2)n1` (relative stereo) [compound 823], the class is recorded as 3 (Class 3 The value of percent of control at 10^−7 M was more than 60% or the value of IC50 was more than 200 nM.).
Under `CN(C)c1ccnc(N[C@H]2CC[C@@H](NC(=O)[C@H](CCCCNC(=O)c3ccccc3)NC(=O)c3ccccc3)CC2)n1` (relative stereo) [compound 843] stands 2 (Class 2: The value of percent of control at 10^−7 M was from 40% to 60% or the value of IC′50 was from 50 nM to 200 nM.); under `CC(C(=O)N[C@H]1CC[C@@H](Nc2nccc(N(C)C)n2)CC1)c1ccc(-c2ccccc2)c(F)c1` (relative stereo) [compound 847], 3 (Class 3 The value of percent of control at 10^−7 M was more than 60% or the value of IC50 was more than 200 nM.).
For the molecule `CC(C(=O)N[C@H]1CC[C@@H](Nc2nccc(N(C)C)n2)CC1)c1ccc(N2Cc3ccccc3C2=O)cc1` (relative stereo) [compound 849], the class is 3 (Class 3 The value of percent of control at 10^−7 M was more than 60% or the value of IC50 was more than 200 nM.).
As to `COc1ccc2c(c1)C(CC(=O)N[C@H]1CC[C@@H](Nc3nccc(N(C)C)n3)CC1)CC2=O` (relative stereo) [compound 852], the class is 3 (Class 3 The value of percent of control at 10^−7 M was more than 60% or the value of IC50 was more than 200 nM.).
The figure for `CN(C)c1ccnc(N[C@H]2CC[C@@H](NC(=O)C(CC(=O)c3ccccc3)c3c[nH]c4ccccc34)CC2)n1` (relative stereo) [compound 855, N-(cis-4-{[4-(dimethylamino)pyrimidin-2-yl]amino}cyclohexyl)-2-(1H-indol-3-yl)-4-oxo-4-phenylbutanamide] is 1 (Class 1: The value of percent of control at 10^−7 M was less than 40% or the value of IC50 was less than 50 nM.); for `CN(C)c1ccnc(N[C@H]2CC[C@@H](NC(=O)C(CC(=O)c3ccc(Br)cc3)c3c[nH]c4ccccc34)CC2)n1` (relative stereo) [compound 856] it is 2 (Class 2: The value of percent of control at 10^−7 M was from 40% to 60% or the value of IC′50 was from 50 nM to 200 nM.); for `CCc1cccc2c(C(CC(=O)c3ccc(C(C)(C)C)cc3)C(=O)N[C@H]3CC[C@@H](Nc4nccc(N(C)C)n4)CC3)c[nH]c12` (relative stereo) [compound 860] it is 3 (Class 3 The value of percent of control at 10^−7 M was more than 60% or the value of IC50 was more than 200 nM.).
The figure for `CN(C)c1ccnc(N[C@H]2CC[C@@H](NC(=O)C(CC(=O)c3ccc(C(C)(C)C)cc3)c3cn(C)c4ccccc34)CC2)n1` (relative stereo) [compound 861] is 3 (Class 3 The value of percent of control at 10^−7 M was more than 60% or the value of IC50 was more than 200 nM.); for `Cc1ccc(C(=O)CC(C(=O)N[C@H]2CC[C@@H](Nc3nccc(N(C)C)n3)CC2)c2cn(C)c3ccccc23)cc1` (relative stereo) [compound 862, N-(cis-4-{[4-(dimethylamino)pyrimidin-2-yl]amino}cyclohexyl)-2-(1-methyl-1H-indol-3-yl)-4-(4-methylphenyl)-4-oxobutanamide] it is 1 (Class 1: The value of percent of control at 10^−7 M was less than 40% or the value of IC50 was less than 50 nM.); for `CCCN(CCC)C(=O)[C@H](CCC(=O)N[C@H]1CC[C@@H](Nc2nccc(N(C)C)n2)CC1)NC(=O)c1ccccc1` (relative stereo) [compound 870] it is 2 (Class 2: The value of percent of control at 10^−7 M was from 40% to 60% or the value of IC′50 was from 50 nM to 200 nM.).
